Laboratory results as given in patent US4272437A, “Antibacterial agents, and 4-thio azetidinone intermediates” (priority 1979, dated 1981).
In brackets after ≈: the same amount, converted by molar mass. Like-named read-outs stand apart in the source and are kept apart here.

Key:
E. coli A-20341-1 = assay: MIC, tube dilution, Escherichia coli A20341-1; assay type: cell-based
Source text: (§1) Representative compounds of the present invention were subjected to in vitro antibiotic screening against a variety of microorganisms.

E. coli A-15119 = assay: MIC, tube dilution, Escherichia coli A15119; assay type: cell-based; settings: Escherichia coli, A15119, E. coli A15119; overnight 37° C.; read-out: Minimum Inhibitory Concentration (M.I.C.)
Source text: as §1

[1] = test system: Staph. aureus A-9537 and 50% serum; assay: MIC, tube dilution, Staph. aureus A9537 + 50% serum; assay type: cell-based, Staphylococcus aureus; settings: Staphylococcus aureus, overnight 37° C., read-out: Minimum Inhibitory Concentration (M.I.C.)
Source text: as §1

[2] = test system: Staph. aureus (Pen-Res) A-9606; assay: MIC, tube dilution, Staphylococcus aureus A9606 (Pen-Res); assay type: cell-based; settings: Staphylococcus aureus, Staph. aureus A9606 (Pen-Res); overnight 37° C.; read-out: Minimum Inhibitory Concentration (M.I.C.)
Source text: as §1

Ser. marcescens A-20019 = assay: MIC, tube dilution, Serratia marcescens A20019; assay type: cell-based; settings: Serratia marcescens, A20019, Serratia marcescens A20019; overnight 37° C.; read-out: Minimum Inhibitory Concentration (M.I.C.)
Source text: as §1

Proteus vulgaris A21559 = assay: MIC, tube dilution, Proteus vulgaris A21559; assay type: cell-based; settings: Proteus vulgaris, A21559, Proteus vulgaris A21559; overnight 37° C.; read-out: Minimum Inhibitory Concentration (M.I.C.)
Source text: as §1

Ent. cloacae A-9659 = assay: MIC, tube dilution, Enterobacter cloacae A9659; assay type: cell-based; settings: Enterobacter cloacae, A9659, Enterobacter cloacae A9659; overnight 37° C.; read-out: Minimum Inhibitory Concentration (M.I.C.)
Source text: as §1

Staph. aureus A-9537 = assay: MIC, tube dilution, Staphylococcus aureus A9537; assay type: cell-based; settings: Staphylococcus aureus, A9537, Staph. aureus A9537; overnight 37° C., Nutrient Broth; read-out: Minimum Inhibitory Concentration (M.I.C.)
Source text: as §1

Ps. aeruginosa A-9843A = assay: MIC, tube dilution, Pseudomonas aeruginosa A9843A; assay type: cell-based; settings: Pseudomonas aeruginosa, A9843A, read-out: Minimum Inhibitory Concentration (M.I.C.), Pseudomonas aeruginosa A9843A; overnight 37° C.
Source text: as §1

Str. faecalis A-20688 = assay: MIC, tube dilution, Streptococcus faecalis A20688; assay type: cell-based; settings: Enterococcus faecalis, A20688, Str. faecalis A20688; overnight 37° C.; read-out: Minimum Inhibitory Concentration (M.I.C.)
Source text: as §1

Proteus rettgeri A21203 = assay: MIC, tube dilution, Proteus rettgeri A21203; assay type: cell-based; settings: Providencia rettgeri, A21203, Proteus rettgeri A21203; overnight 37° C.; read-out: Minimum Inhibitory Concentration (M.I.C.)
Source text: as §1

Ent. cloacae A-9656 = assay: MIC, tube dilution, Enterobacter cloacae A9656; assay type: cell-based; settings: Enterobacter cloacae, A9656, Enterobacter cloacae A9656; overnight 37° C.; read-out: Minimum Inhibitory Concentration (M.I.C.)
Source text: as §1

Pr. mirabilis A-9900 = assay: MIC, tube dilution, Proteus mirabilis A9900; assay type: cell-based; settings: overnight 37° C.; for MIC: Proteus mirabilis, A9900, Proteus mirabilis A9900, read-out: Minimum Inhibitory Concentration (M.I.C.)
Source text: as §1

Ps. aeruginosa A-21213 = assay: MIC, tube dilution, Pseudomonas aeruginosa A21213; assay type: cell-based; settings: Pseudomonas aeruginosa A21213; overnight 37° C.; read-out: Minimum Inhibitory Concentration (M.I.C.)
Source text: as §1

Str. pneumoniae A-9585 = assay: MIC, tube dilution, Streptococcus pneumoniae A9585; assay type: cell-based; settings: Streptococcus pneumoniae, A9585, Str. pneumoniae A9585; overnight 37° C., Nutrient Broth; read-out: Minimum Inhibitory Concentration (M.I.C.)
Source text: as §1

[3] = test system: Klebsiella species A20468; assay: MIC, tube dilution, Klebsiella species A20468; assay type: cell-based; settings: Klebsiella species (K. pneumoniae) A20468; overnight 37° C.; read-out: Minimum Inhibitory Concentration (M.I.C.)
Source text: as §1

K. pneumoniae A-15130 = assay: MIC, tube dilution, Klebsiella pneumoniae A15130; assay type: cell-based; settings: Klebsiella pneumoniae, A15130, K. pneumoniae A15130; overnight 37° C.; read-out: Minimum Inhibitory Concentration (M.I.C.)
Source text: as §1

[4] = test system: Staph. aureus (Meth-Res) A-15097; assay: MIC, tube dilution, Staphylococcus aureus A15097 (Meth-Res); assay type: cell-based; settings: Staphylococcus aureus, Staph. aureus A15097 (Meth-Res); overnight 37° C.; read-out: Minimum Inhibitory Concentration (M.I.C.)
Source text: as §1

S. aureus A9537 = assay: In vivo protection of mice, lethal infection with S. aureus A9537; settings: Staphylococcus aureus, A9537, im, IM, 2 treatments, read-out: PD50
Description: Representative compounds of the present invention were also tested in vivo in mice and their PD50 (dose of compound in mg/kg required to protect 50% of the treated mice against an otherwise lethal infection of a micro-organism) values determined with respect to the test organisms shown below.

Str. pyogenes A-9604 = assay: MIC, tube dilution, Streptococcus pyogenes A9604; assay type: cell-based; settings: Streptococcus pyogenes, A9604, Str. pyogenes A9604; overnight 37° C., Nutrient Broth; read-out: Minimum Inhibitory Concentration (M.I.C.)
Source text: as §1

Pr. morganii A-15153 = assay: MIC, tube dilution, Proteus morganii A15153; assay type: cell-based; settings: overnight 37° C.; for MIC: Morganella morganii, A15153, Proteus morganii A15153, read-out: Minimum Inhibitory Concentration (M.I.C.)
Source text: as §1

[5] = Escherichia coli, A203411, E. coli A20341-1; overnight 37° C.; read-out: Minimum Inhibitory Concentration (M.I.C.)

| SMILES | MIC (E. coli A-20341-1; [5]) | MIC (E. coli A-15119) | MIC [1] | MIC [2] | MIC (Ser. marcescens A-20019) | MIC (Proteus vulgaris A21559) | MIC (Ent. cloacae A-9659) | MIC (Staph. aureus A-9537) | MIC (Ps. aeruginosa A-9843A) | MIC (Str. faecalis A-20688) | MIC (Proteus rettgeri A21203) | MIC (Ent. cloacae A-9656) | MIC (Pr. mirabilis A-9900) | MIC (Ps. aeruginosa A-21213) | MIC (Str. pneumoniae A-9585) | MIC [3] | MIC (K. pneumoniae A-15130) | MIC [4] | MIC (Str. pyogenes A-9604) | MIC (Pr. morganii A-15153) | further results |
| --- | --- | --- | --- | --- | --- | --- | --- | --- | --- | --- | --- | --- | --- | --- | --- | --- | --- | --- | --- | --- | --- |
| CCCC(N)C1=C(C(=O)O)N2C(=O)CC2S1 [Example 82, (1'R,5R and 1'S,5S) and (1'R,5S and 1'S,5R) 2-(1'-Aminobutyl)-penem-3-carboxylic Acid] | 32 µg/mL (≈ 132 µM) | 8 µg/mL (≈ 33 µM) | 4 µg/mL | 16 µg/mL (≈ 66 µM) | 16 µg/mL (≈ 66 µM) | 8 µg/mL (≈ 33 µM) | 63 µg/mL (≈ 260 µM) | 0.25 µg/mL (≈ 1.03 µM) | > 125 µg/mL | 63 µg/mL (≈ 260 µM) | 8 µg/mL (≈ 33 µM) | 32 µg/mL (≈ 132 µM) | 4 µg/mL (≈ 16.5 µM) | > 125 µg/mL | 0.016 µg/mL (≈ 0.066 µM) | > 125 µg/mL | 32 µg/mL (≈ 132 µM) | 4 µg/mL (≈ 16.5 µM) | 0.016 µg/mL (≈ 0.066 µM) | 16 µg/mL (≈ 66 µM) | ED50 (S. aureus A9537; 1 × 10^6 organisms): 1.25 mg/kg |
| CC1=C(C(=O)O)N2C(=O)[C@H]([C@@H](C)O)[C@H]2S1 (relative stereo) [Example 60, (1'R,5R,6S and 1'S,5S,6R) 6-(1'-Hydroxy-1'-ethyl)-2-methylpenem-3-carboxylic Acid (isomer B)] | 16 µg/mL (≈ 69.8 µM) | 16 µg/mL (≈ 69.8 µM) | 8 µg/mL | 4 µg/mL (≈ 17.4 µM) | 16 µg/mL (≈ 69.8 µM) | 16 µg/mL (≈ 69.8 µM) | 32 µg/mL (≈ 140 µM) | 2 µg/mL (≈ 8.72 µM) | > 125 µg/mL | 63 µg/mL (≈ 275 µM) | 16 µg/mL (≈ 69.8 µM) | 16 µg/mL (≈ 69.8 µM) | 32 µg/mL (≈ 140 µM) | > 125 µg/mL | 0.25 µg/mL (≈ 1.09 µM) | 16 µg/mL (≈ 69.8 µM) | 16 µg/mL (≈ 69.8 µM) | 8 µg/mL (≈ 34.9 µM) | 1 µg/mL (≈ 4.36 µM) | 32 µg/mL (≈ 140 µM) | Minimum Inhibitory Concentration (M.I.C.) (Pr. mirabilis A-9900; Proteus mirabilis A9900): 16 µg/mL; ED50 (S. aureus A9537; 6.6 × 10^5 organisms): 7.7 mg/kg; Minimum Inhibitory Concentration (M.I.C.) (Pr. morganii A-15153; Proteus morganii A15153): 16 µg/mL |
| NCc1ccc(C2=C(C(=O)O)N3C(=O)CC3S2)cc1 (centres unmarked) [Example 74, 2-(p-Aminomethylphenyl)penem-3-carboxylic Acid] | – | 8 µg/mL (≈ 29 µM) | 2 µg/mL | 32 µg/mL (≈ 116 µM) | 16 µg/mL (≈ 57.9 µM) | 16 µg/mL (≈ 57.9 µM) | 32 µg/mL (≈ 116 µM) | 0.004 µg/mL (≈ 0.0145 µM) | > 125 µg/mL | 1 µg/mL (≈ 3.62 µM) | 16 µg/mL (≈ 57.9 µM) | 32 µg/mL (≈ 116 µM) | 4 µg/mL (≈ 14.5 µM) | > 125 µg/mL | 0.001 µg/mL (≈ 0.00362 µM) | > 125 µg/mL | 32 µg/mL (≈ 116 µM) | 32 µg/mL (≈ 116 µM) | 0.001 µg/mL (≈ 0.00362 µM) | 16 µg/mL (≈ 57.9 µM) | MIC (E. coli A-20341-1; Escherichia coli, A203411; E. coli A20341-1; overnight 37° C.; read-out: Minimum Inhibitory Concentration (M.I.C.)): 125 µg/mL (≈ 452 µM); ED50 (S. aureus A9537; 7.3 × 10^5 organisms): 0.82 mg/kg |
